Laboratory results from PubChem BioAssay (NCI).
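96-well plates; 48 h exposure; 5 concentrations. Endpoints by linear interpolation between flanking doses. Not reached: highest tested concentration assigned. GI50 marks 50% less growth. TGI: concentration producing complete growth inhibition.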

How the values were obtained:
Test in all cases: inhibition of tumour cell growth, NCI panel, 48 h
[1] = system: A498 renal
[2] = system: HCC-2998 colon
[3] = system: MALME-3M melanoma
[4] = system: MOLT-4 leukemia
[5] = system: NCI-H460 lung
[6] = system: NCI-H522 lung
[7] = system: OVCAR-8 ovarian
[8] = system: SK-MEL-2 melanoma
[9] = system: SW-620 colon
[10] = system: TK-10 renal

SMILES | GI50 [1] [µM] | TGI [1] [µM] | GI50 [2] [µM] | TGI [2] [µM] | GI50 [3] [µM] | TGI [3] [µM] | GI50 [4] [µM] | TGI [4] [µM] | GI50 [5] [µM] | TGI [5] [µM] | GI50 [6] [µM] | TGI [6] [µM] | GI50 [7] [µM] | TGI [7] [µM] | GI50 [8] [µM] | TGI [8] [µM] | GI50 [9] [µM] | TGI [9] [µM] | GI50 [10] [µM] | TGI [10] [µM]
Cc1cc(N(CCCl)CCCl)ccc1C=Nc1ccc(-c2csc(Cc3ccccc3)n2)cc1 | 0.144 | 1.13 | 14.4 | 33.3 | 16.4 | 33.2 | 2.22 | 62 | 0.475 | 23.6 | 11.7 | 27 | 10.2 | 46.2 | 18.8 | 40.3 | 18.1 | > 100 | 19.9 | 62.5
CCCC(=O)OC1C(C(O)CO)OC2OC(C)(C)OC21 (stereo not given) | – | > 100 | – | > 100 | – | > 100 | – | > 100 | – | > 100 | – | > 100 | – | > 100 | – | > 100 | – | > 100 | – | > 100
O=C(NCCCCCCNC(=O)n1cc(F)c(=O)[nH]c1=O)NCCCOCCOCCOCCOCCOCCOCCOCCOCCOCCOCCOCCOCCOCCOCCOCCOCCOCCOCCOCCOCCOCCCNC(=O)C(O)C(O)C(O)C(O)CO (stereo not given) | – | > 42.1 | – | > 100 | – | > 100 | – | > 100 | – | > 100 | – | > 100 | – | > 100 | – | > 100 | – | > 100 | – | > 100
CC#C[C@]1(O)CC[C@H]2[C@@H]3CCC4=CC(=O)CCC4=C3[C@@H](c3ccc4c(c3)OCO4)C[C@@]21C | 88.3 | 268 | 174 | 572 | 173 | 556 | 49.5 | > 1000 | 108 | 305 | 110 | 460 | 141 | 783 | 111 | 291 | 62.3 | > 1000 | 125 | 461
COc1cccc2c1c(C(=O)C(=O)Nc1cc(C)no1)cn2Cc1ccc(F)cc1 | 19.6 | > 67.5 | 37 | > 100 | 93.2 | > 100 | 3.99 | > 60.7 | 5.15 | 46.9 | 8.51 | > 100 | 25.2 | > 100 | 8.48 | > 87.3 | 3.68 | > 100 | 15.3 | > 100
COc1ccc(-c2nn3c(-c4cc(F)c(Cl)cc4Cl)nnc3s2)cc1 | 43.4 | > 100 | 20.7 | 48.7 | 26.8 | > 100 | 26.5 | 80.7 | 22.4 | 86.5 | 17 | 73.1 | 22 | 62.1 | 25.4 | 60.1 | 24.6 | > 100 | 56.5 | > 100
COc1ccc(C2=Nc3ccccc3NC(=O)C2)cc1 | – | > 100 | – | > 100 | – | > 100 | – | > 100 | – | > 100 | – | > 100 | – | > 100 | – | > 100 | – | 45 | – | 66.4
